In the assay the test system is adult male rabbits of the animal strain HsdHHL Watanables. Nature of the assay: Erection (length of the protruding penis) in hypercholesterolemic rabbits after cGMP PDE inhibitor, with or without antilipemic pretreatment. Particulars: cerivastatin sodium 1 mg/kg s.c. for 7 days. It is filed as in vivo, rabbit. As for the experimental part:
In a placebo-controlled study, twelve adult male rabbits of the animal strain HsdHHL Watanables having a body weight of 3-5 kg, which, owing to breeding, suffer from hypercholesterolemia and arteriosclerosis, were treated with a selective cGMP PDE inhibitor (3 mg/kg, intravenously).
The animals had free access to water and, for 2 hours per day, to feed. The animals were kept in a 10/14 hour day/night rhythm (light on from 8 am onwards), and the ambient temperature was 22 to 24° C.
The selective cGMP PDE inhibitor used was 2-[2-ethoxy-5-(4-ethyl-piperazine-1-sulfonyl)-phenyl]-5-methyl-7-propyl-3H-imidazo[5,1-f][1,2,4]triazin-4-one hydrochloride trihydrate (Ex. 336 of WO-A-99/24433).
For intravenous injection, the PDE inhibitor was dissolved in physiological saline (0.9% by volume).
For seven days prior to the treatment with the PDE inhibitor, i.e. for 7 successive days, an antilipemic, i.e. cerivastatin sodium (i.e. the monosodium salt of cerivastatin) was administered subcutaneously to six of the twelve rabbits (1 mg/kg of body weight, cerivastatin sodium dissolved in physiological saline). […]
The erection was evaluated by measuring the length of the protruding penis using a vernier caliper. […] To this end, the animals were in each case removed from the cage, held by neck hair and hind legs, turned onto their back and measured. […]

As for `COCc1c(C(C)C)nc(C(C)C)c(/C=C/[C@@H](O)C[C@@H](O)CC(=O)O)c1-c1ccc(F)cc1` [cerivastatin sodium], for the setting “then PDE inhibitor 3 mg/kg i.v., 1 day vs 3 days after end of pretreatment”, the “erection 1 day after the cerivastatin sodium pretreatment had ended compared with 3 days after (FIG. 2, upper vs middle curve)” value is “still more pronounced”. Where the note is “then PDE inhibitor (Ex. 336 of WO-A-99/24433) 3 mg/kg i.v. 1 day and 3 days after pretreatment ended, measured 5-120 min, control saline pretreatment”, the “erection after administration of the PDE inhibitor, compared with rabbits not pretreated with the antilipemic (FIG. 2)” value is “considerably more pronounced erection”.
